# Reference: US6548528B2, “Pesticidal pyrazoles and derivatives” (Rhone-Poulenc Agro, priority 1996, dated 2003)
# Test system: termites
# Assay: Soil treatment at discrete locations around a house to be built, protection against termites (Example 1)
# Format: in vivo
# Conditions: for attack of termite observed: 1 year after building the house, 0.01 g/m^2 of soil at future corners and wall crossings, treated area 5 m per 10 m of perimeter
# Source text: In an area where termites are passing or traveling, plans for a house are made. The plans are that the house will have a rectangular shape of 15 m×10 m with 4 rooms at the lower level.
# Compound (A) is actually put on the soil at a rate of 0.01 g/m^2 of the soil at the location of the future corners of the house and at the crossing of the walls corresponding to each room according to the following scheme: [drawing 2]
# The treated area represents 5 m per 10 m of perimeter.
SMILES,attack of termite observed,"holes in parts of the walls, % of the volume (one year after building the house, similar experiment to Example 1)"
"N#Cc1nn(-c2c(Cl)cc(C(F)(F)F)cc2Cl)c(N)c1[S+]([O-])C(F)(F)F (stereo not drawn) [Compound (A), 5-amino 1-(2,6-dichloro 4-trifluoromethylphenyl) 4-trifluoromethylsulfinyl 3-cyanopyrazole]",no attack of termite,
CCOP(=S)(OCC)Oc1nc(Cl)c(Cl)cc1Cl [chlorpyrifos],strong attack of termites,more than 10%
